Laboratory results taken from patent US12157741B2, “Macrocyclic inhibitors of DYRK1A” (DANA-FARBER CANCER INSTITUTE, INC., priority 2018, dated 2024).

Columns and labels:
[1] = molecular target: various enzymes (Homo sapiens, UniProt O94804); settings: LOK; 1 uM
Method: (§1) Ambit profiling from Eurofins (formerly Discoverx) was conducted in accordance with the manufacturer's instructions.

[2] = molecular target: various enzymes (Homo sapiens, UniProt P24941); settings: CDK2; 1 uM
Method: as §1

[3] = molecular target: various enzymes (Homo sapiens, UniProt P53779); settings: JNK3; 1 uM
Method: as §1

[4] = molecular target: T1, various enzymes (Homo sapiens, UniProt Q12852); settings: DLK; 1 uM
T1 sequence (Q12852 1-859): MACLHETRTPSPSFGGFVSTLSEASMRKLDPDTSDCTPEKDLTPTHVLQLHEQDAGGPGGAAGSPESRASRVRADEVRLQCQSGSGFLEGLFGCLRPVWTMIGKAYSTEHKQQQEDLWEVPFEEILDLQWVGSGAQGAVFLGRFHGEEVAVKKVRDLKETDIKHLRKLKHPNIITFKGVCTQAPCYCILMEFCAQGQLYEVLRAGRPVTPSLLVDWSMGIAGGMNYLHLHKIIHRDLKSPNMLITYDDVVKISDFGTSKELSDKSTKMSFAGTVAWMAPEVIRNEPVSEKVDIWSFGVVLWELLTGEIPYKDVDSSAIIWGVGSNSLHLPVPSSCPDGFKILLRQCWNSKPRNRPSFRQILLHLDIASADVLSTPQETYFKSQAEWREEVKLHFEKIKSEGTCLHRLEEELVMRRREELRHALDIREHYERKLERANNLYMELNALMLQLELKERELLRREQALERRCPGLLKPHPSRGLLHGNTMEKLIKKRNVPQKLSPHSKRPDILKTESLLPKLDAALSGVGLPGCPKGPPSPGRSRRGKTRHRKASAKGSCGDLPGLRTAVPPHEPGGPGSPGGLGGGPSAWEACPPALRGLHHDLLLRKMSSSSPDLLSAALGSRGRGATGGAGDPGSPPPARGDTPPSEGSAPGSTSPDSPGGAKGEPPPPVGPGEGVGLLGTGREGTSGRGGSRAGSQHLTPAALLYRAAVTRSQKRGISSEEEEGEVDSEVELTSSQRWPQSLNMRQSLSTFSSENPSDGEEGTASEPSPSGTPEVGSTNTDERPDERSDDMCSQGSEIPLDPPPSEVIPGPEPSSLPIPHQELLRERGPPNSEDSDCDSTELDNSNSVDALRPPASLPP
Method: as §1

[5] = molecular target: T2, various enzymes (Homo sapiens, UniProt Q6PHR2); settings: ULK3; 1 uM
T2 sequence (Q6PHR2 1-472): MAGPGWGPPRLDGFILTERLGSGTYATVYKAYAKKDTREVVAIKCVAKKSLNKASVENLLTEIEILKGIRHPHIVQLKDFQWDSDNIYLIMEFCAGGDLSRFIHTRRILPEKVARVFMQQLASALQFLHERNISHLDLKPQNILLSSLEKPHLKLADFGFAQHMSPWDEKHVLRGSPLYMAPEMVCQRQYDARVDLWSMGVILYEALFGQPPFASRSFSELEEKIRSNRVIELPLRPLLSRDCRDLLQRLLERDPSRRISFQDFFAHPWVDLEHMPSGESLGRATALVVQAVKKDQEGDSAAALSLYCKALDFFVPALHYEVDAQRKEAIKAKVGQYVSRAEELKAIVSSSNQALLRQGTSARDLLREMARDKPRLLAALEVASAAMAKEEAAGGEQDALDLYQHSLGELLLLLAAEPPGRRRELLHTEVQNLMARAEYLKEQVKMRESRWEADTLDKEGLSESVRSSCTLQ
Method: as §1

[6] = molecular target: T3, various enzymes (Homo sapiens, UniProt Q96L34); settings: MARK4; 1 uM
T3 sequence (Q96L34 1-752): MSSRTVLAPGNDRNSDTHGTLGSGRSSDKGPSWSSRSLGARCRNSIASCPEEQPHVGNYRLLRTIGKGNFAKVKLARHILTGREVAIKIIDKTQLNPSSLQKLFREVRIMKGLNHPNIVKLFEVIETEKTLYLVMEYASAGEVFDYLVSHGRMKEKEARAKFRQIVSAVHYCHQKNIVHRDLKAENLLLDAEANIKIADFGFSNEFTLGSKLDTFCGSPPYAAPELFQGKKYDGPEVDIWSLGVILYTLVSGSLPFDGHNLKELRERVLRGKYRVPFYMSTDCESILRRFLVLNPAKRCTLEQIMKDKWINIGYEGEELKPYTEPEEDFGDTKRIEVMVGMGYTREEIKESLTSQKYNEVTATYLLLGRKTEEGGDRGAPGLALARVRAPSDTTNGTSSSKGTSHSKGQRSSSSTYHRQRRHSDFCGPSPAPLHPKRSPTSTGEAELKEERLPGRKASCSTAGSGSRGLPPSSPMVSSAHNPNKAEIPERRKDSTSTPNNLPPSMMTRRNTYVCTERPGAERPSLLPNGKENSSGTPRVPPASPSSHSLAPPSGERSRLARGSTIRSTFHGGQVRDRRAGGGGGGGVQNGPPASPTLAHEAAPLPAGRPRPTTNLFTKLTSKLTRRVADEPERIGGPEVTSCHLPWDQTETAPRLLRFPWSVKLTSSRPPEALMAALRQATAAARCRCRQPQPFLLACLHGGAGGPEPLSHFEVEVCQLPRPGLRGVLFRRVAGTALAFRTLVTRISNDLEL
Method: as §1

[7] = molecular target: T4, various enzymes (Homo sapiens, UniProt Q99640); settings: PKMYT1; 1 uM
T4 sequence (Q99640 1-499): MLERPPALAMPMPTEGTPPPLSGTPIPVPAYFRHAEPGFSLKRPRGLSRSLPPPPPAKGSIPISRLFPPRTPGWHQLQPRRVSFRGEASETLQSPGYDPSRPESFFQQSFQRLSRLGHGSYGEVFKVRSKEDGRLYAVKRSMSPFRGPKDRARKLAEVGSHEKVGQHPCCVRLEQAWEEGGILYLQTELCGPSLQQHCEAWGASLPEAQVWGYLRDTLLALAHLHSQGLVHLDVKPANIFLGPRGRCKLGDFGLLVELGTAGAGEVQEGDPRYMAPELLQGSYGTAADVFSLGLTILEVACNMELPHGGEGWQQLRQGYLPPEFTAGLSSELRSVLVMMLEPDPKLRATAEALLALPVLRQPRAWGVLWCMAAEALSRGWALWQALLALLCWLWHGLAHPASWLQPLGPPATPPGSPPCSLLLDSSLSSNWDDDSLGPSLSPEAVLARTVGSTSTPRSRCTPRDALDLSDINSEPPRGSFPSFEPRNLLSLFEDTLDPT
Method: as §1

[8] = molecular target: various enzymes (Homo sapiens, UniProt Q9H4A3); settings: WNK1; 1 uM
Method: as §1

[9] = molecular target: various enzymes (Homo sapiens, UniProt Q9Y6M4); settings: CSNK1G3; 1 uM
Chain of various enzymes (Homo sapiens, UniProt Q9Y6M4) (Q9Y6M4 whole entry): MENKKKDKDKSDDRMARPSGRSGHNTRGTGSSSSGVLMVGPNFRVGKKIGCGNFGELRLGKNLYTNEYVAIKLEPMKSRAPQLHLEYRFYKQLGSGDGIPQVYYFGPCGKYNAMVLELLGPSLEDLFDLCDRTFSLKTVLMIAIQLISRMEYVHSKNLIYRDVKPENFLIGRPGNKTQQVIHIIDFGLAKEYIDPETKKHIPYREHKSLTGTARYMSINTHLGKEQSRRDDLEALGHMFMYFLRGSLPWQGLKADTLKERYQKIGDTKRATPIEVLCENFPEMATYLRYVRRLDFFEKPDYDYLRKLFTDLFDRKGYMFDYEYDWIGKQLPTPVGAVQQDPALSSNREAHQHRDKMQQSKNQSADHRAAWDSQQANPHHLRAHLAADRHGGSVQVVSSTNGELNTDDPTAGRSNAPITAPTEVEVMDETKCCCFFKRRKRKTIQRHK
Method: as §1

Chain of various enzymes (Homo sapiens, UniProt Q9H4A3) (Q9H4A3 whole entry): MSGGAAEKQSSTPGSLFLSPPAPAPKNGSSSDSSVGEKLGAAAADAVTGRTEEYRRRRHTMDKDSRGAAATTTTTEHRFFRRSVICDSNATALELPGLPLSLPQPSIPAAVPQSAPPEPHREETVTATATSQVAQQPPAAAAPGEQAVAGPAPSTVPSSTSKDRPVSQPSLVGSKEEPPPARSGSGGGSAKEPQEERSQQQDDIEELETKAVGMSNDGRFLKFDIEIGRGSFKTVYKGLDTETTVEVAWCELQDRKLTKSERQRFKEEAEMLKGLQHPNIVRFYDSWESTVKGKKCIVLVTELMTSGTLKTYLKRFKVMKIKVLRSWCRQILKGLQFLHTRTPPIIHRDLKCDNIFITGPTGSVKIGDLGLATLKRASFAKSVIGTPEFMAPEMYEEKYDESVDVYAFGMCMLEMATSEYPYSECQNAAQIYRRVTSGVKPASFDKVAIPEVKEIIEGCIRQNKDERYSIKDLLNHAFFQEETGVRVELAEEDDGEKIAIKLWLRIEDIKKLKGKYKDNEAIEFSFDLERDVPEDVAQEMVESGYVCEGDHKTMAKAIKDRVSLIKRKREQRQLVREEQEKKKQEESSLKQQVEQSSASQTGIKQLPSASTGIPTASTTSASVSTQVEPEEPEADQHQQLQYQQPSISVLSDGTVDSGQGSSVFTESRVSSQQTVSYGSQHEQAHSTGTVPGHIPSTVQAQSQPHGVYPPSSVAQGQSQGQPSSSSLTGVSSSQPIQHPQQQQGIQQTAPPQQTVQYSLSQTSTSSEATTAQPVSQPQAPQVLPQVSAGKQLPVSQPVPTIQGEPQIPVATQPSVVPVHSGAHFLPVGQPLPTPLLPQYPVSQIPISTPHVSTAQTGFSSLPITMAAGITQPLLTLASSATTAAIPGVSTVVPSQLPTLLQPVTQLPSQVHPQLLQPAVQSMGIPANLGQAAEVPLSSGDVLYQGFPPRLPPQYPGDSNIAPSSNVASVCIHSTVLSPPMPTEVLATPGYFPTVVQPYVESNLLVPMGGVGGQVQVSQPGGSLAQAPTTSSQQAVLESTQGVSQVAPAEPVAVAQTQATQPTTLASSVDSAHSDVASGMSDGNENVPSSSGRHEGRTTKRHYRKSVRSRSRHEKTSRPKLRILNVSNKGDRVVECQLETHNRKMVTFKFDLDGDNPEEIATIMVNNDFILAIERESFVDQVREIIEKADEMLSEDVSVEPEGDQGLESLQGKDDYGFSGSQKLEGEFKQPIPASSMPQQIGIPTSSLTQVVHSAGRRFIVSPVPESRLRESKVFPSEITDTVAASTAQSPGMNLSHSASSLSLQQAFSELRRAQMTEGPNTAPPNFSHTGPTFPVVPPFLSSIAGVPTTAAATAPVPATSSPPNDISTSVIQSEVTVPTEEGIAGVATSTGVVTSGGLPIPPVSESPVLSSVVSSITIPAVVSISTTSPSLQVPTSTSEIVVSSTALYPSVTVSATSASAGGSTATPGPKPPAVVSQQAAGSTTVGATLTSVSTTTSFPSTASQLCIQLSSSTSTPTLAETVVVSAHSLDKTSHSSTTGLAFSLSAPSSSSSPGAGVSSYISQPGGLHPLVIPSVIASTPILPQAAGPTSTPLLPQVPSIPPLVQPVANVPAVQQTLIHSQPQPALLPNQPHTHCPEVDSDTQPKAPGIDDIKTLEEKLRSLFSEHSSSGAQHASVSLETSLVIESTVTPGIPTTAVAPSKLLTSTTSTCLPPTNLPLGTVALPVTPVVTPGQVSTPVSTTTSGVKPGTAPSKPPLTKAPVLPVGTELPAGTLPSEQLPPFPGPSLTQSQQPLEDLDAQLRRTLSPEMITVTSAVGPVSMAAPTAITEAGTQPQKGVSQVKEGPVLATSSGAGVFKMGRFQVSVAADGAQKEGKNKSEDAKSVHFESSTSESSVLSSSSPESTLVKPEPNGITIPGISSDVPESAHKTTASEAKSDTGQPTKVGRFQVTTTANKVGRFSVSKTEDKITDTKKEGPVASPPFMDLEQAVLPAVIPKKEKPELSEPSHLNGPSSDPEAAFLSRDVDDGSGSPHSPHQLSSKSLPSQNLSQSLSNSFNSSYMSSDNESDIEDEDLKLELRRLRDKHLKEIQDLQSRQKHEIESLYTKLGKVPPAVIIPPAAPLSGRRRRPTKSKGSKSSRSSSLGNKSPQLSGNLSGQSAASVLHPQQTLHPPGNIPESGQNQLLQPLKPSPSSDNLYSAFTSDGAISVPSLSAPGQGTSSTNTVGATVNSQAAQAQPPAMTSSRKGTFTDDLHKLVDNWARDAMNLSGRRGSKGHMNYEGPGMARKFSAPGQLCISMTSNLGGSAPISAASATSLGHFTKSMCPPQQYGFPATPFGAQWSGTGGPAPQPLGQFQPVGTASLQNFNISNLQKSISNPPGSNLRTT
Chain of various enzymes (Homo sapiens, UniProt P53779) (P53779 whole entry): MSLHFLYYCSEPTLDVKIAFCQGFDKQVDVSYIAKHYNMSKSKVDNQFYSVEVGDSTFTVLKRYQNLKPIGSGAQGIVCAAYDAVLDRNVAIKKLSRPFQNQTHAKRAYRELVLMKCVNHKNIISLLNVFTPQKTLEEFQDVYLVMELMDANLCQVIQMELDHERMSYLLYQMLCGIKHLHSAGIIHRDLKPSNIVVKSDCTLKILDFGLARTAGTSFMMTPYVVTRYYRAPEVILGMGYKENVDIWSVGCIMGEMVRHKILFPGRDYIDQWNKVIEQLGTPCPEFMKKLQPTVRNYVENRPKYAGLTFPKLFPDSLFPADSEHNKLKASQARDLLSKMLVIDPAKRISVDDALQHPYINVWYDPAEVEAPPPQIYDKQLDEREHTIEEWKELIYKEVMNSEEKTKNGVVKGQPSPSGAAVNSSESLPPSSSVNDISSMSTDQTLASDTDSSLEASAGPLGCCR
Chain of various enzymes (Homo sapiens, UniProt O94804) (O94804 whole entry): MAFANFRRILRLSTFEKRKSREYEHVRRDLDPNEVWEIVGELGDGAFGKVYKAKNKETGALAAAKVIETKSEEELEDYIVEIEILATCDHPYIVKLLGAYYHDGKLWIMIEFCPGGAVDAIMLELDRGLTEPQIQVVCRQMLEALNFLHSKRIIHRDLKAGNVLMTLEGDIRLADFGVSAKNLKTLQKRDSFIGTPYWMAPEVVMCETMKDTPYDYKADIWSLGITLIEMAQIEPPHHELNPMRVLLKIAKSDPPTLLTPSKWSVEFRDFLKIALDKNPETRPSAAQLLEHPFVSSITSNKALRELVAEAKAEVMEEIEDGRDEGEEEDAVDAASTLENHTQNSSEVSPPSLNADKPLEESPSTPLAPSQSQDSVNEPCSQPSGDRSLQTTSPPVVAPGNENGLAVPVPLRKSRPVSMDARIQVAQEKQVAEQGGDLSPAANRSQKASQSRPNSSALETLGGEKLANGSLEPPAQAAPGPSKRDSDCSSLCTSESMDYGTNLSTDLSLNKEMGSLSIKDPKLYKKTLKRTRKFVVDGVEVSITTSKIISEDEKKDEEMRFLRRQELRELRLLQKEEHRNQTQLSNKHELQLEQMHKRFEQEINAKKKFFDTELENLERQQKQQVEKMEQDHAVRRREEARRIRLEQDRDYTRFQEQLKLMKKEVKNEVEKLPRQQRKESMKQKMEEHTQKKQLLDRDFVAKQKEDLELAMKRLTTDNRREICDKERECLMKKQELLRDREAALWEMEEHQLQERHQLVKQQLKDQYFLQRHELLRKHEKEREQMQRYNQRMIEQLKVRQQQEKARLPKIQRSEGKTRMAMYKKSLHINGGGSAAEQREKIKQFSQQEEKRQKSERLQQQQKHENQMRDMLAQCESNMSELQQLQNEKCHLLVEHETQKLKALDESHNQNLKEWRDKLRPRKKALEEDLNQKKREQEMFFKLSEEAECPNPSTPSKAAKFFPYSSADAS

SMILES	Ambit profiling [1]	Ambit profiling [2]	Ambit profiling [3]	Ambit profiling [4]	Ambit profiling [5]	Ambit profiling [6]	Ambit profiling [7]	Ambit profiling [8]	Ambit profiling [9]
CN1Cc2nn(C)c(C#N)c2-c2cnc3[nH]cc(c3c2)-c2cn(nc2C(F)(F)F)CCCC1=O [Compound 48, (Z)-31,5-dimethyl-6-oxo-13-(trifluoromethyl)-11H,21H,31H-5-aza-2(3,5)-pyrrolo[2,3-b]pyridina-1(4,1),3(4,3)-dipyrazolacyclononaphane-35-carbonitrile]	52	91	14	100	97	92	77	100	98
CN1Cc2nn(C)cc2-c2cnc3[nH]cc(c3c2)-c2cnn(c2)CCCC1=O [Compound 41, (Z)-31,5-dimethyl-11H,21H,31H-5-aza-2(3,5)-pyrrolo[2,3-b]pyridina-1(4,1),3(4,3)-dipyrazolacyclononaphan-6-one]	74	55	0.75	23	5.6	27	64	95	100
